{
  "source": "paper PMC11881343",
  "about": "“Safety of ilunocitinib tablets (Zenrelia™) after once daily oral administration in dogs” (BMC Veterinary Research, 2025)",
  "key": {"healthy Beagle dogs [1]": {"test_system": "healthy Beagle dogs", "details": "dog, in vivo", "description": "At study termination (study day 183), the dogs were humanely euthanized by an intravenous injection of pentobarbital sodium/phenytoin solution under sedation with 6.6–13.2 mg/kg Telazol® (tiletamine/zolazepam) subcutaneous injection. Gross and microscopic examinations were carried out on all animals by a board-certified veterinary pathologist."}, "healthy Beagle dogs [2]": {"test_system": "healthy Beagle dogs", "assay": "6-month target animal safety study: clinical observations, physical, neurological and ophthalmoscopic examinations", "details": "for Skin discoloration, number of animals affected / Skin lesion w/discharge, number of animals affected / Skin lesion, number of animals affected / Skin scab paw, number of animals affected / Skin thickening (paws), number of animals affected / Swollen paws, number of animals affected: 8 dogs per group", "procedure": "This was a randomized, controlled, blinded, 6-month study with a parallel design. Using a block randomization procedure stratified by sex, 20 males and 20 females were randomly allocated on study day − 3 to one of the following five groups (4 males and 4 females per group): Group 1: Untreated control (sham-dosed with 5 mL of tap water); Group 2: Ilunocitinib film-coated tablets at a target dose level of 0.8 mg/kg (1X); Group 3: Ilunocitinib film-coated tablets at a target dose level of 1.6 mg/kg (2X); Group 4: Ilunocitinib film-coated tablets at a target dose level of 2.4 mg/kg (3X) and Group 5: Ilunocitinib film-coated tablets at a target dose level of 4.0 mg/kg (5X). The experimental unit was the individual dog.\nThe dose levels were selected based on the maximum therapeutic dose (i.e. 0.8 mg/kg, 1X) and the requirement to test multiples of the maximum therapeutic dose, i.e. 2X, 3X and 5X the therapeutic dose. Doses for each individual animal were based on the most recent body weight. Commercial tablets of ilunocitinib, available in 4.8, 6.4, 8.5, and 15 mg strength, were dispensed. These tablets were combined appropriately to meet the individual’s precise dosage requirement, ensuring there was no underdosing. […] Approximately 5 mL of water was given after each administration and the mouth checked to ensure the tablets had been swallowed. Control animals were sham treated with 5 mL of tap water.\nAnimals were observed twice daily, at least 6 h apart, over the entire course of the study for morbidity, mortality and injury. Clinical examinations of each dog were performed before treatment administration and at approximately 2 and 5 h post treatment. Observations included, but were not limited to, evaluation of skin, fur, eyes, ears, nose, oral cavity, thorax, abdomen, external genitalia, limbs and feet, respiratory and circulatory signs, autonomic effects such as salivation, and nervous system effects including tremors, convulsions, reactivity to handling, and unusual behavior.\nBody weights for all animals were recorded during the acclimation phase (study days − 12 and − 1) and then once weekly during the study. Food consumption (dry and wet food) was measured and recorded daily. […] Assessments including overall general condition and behavior, ocular inspection, integument, musculoskeletal, gastrointestinal, body temperature, cardiovascular and respiratory systems including auscultation-based assessment, reproductive, lymphatic, urinary and nervous systems."}, "dogs": {"test_system": "dogs", "set-up": "method as in internal report", "details": "dogs maintained on concrete floors with corn cob bedding; ref internal report; cited from earlier work"}, "[3]": {"details": "tablets, dogs; no reference given; cited from earlier work"}, "[4]": {"details": "1X (0.8 mg/kg oral once daily, 6 months)"}, "[5]": {"details": "2X (1.6 mg/kg oral once daily, 6 months)"}, "[6]": {"details": "3X (2.4 mg/kg oral once daily, 6 months)"}, "[7]": {"details": "5X (4.0 mg/kg oral once daily, 6 months)"}},
  "data": [
    {"smiles": "N#CCC1(n2cc(-c3ncnc4[nH]ccc34)cn2)CN(S(=O)(=O)C2CC2)C1", "note": "[ilunocitinib]", "values": [
      {"measurement": "Microscopic findings across all groups", "setting": "healthy Beagle dogs [1]", "result": "minimal and largely consistent with background pathology"},
      {"measurement": "combined adrenal gland weight vs controls", "setting": "healthy Beagle dogs [1]", "result": "increased combined adrenal gland weight"},
      {"measurement": "cutaneous lesions (microscopic), animals affected", "setting": "healthy Beagle dogs [1]", "result": "5 out of 8"},
      {"measurement": "enlarged thyroid/parathyroid glands (incidental macroscopic finding)", "setting": "healthy Beagle dogs [1]", "result": "single case of enlarged thyroid/parathyroid glands"},
      {"measurement": "focal lesions on the lungs (incidental macroscopic finding)", "setting": "healthy Beagle dogs [1]", "result": "two focal lesions on the lungs"},
      {"measurement": "serious adverse effects during the course of the study", "setting": "healthy Beagle dogs [2]; 0.8 to 4.0 mg/kg once daily for 6 months", "result": "no serious adverse effects"},
      {"measurement": "Skin discoloration, number of animals affected", "setting": "healthy Beagle dogs [2]; [4]", "result": 1},
      {"measurement": "Skin lesion w/discharge, number of animals affected", "setting": "healthy Beagle dogs [2]; [4]", "result": 1},
      {"measurement": "Skin lesion, number of animals affected", "setting": "healthy Beagle dogs [2]; [4]", "result": 4},
      {"measurement": "Skin scab paw, number of animals affected", "setting": "healthy Beagle dogs [2]; [4]", "result": 0},
      {"measurement": "Skin thickening (paws), number of animals affected", "setting": "healthy Beagle dogs [2]; [4]", "result": 0},
      {"measurement": "Swollen paws, number of animals affected", "setting": "healthy Beagle dogs [2]; [4]", "result": 1},
      {"measurement": "interdigital furunculosis, or cysts, with or without discharge on one or more paws", "setting": "healthy Beagle dogs [2]; 1X to 5X", "result": "dose-dependent presence"},
      {"measurement": "Skin discoloration, number of animals affected", "setting": "healthy Beagle dogs [2]; [5]", "result": 1},
      {"measurement": "Skin lesion w/discharge, number of animals affected", "setting": "healthy Beagle dogs [2]; [5]", "result": 3},
      {"measurement": "Skin lesion, number of animals affected", "setting": "healthy Beagle dogs [2]; [5]", "result": 5},
      {"measurement": "Skin scab paw, number of animals affected", "setting": "healthy Beagle dogs [2]; [5]", "result": 0},
      {"measurement": "Skin thickening (paws), number of animals affected", "setting": "healthy Beagle dogs [2]; [5]", "result": 1},
      {"measurement": "Swollen paws, number of animals affected", "setting": "healthy Beagle dogs [2]; [5]", "result": 5},
      {"measurement": "Skin discoloration, number of animals affected", "setting": "healthy Beagle dogs [2]; [6]", "result": 2},
      {"measurement": "Skin lesion w/discharge, number of animals affected", "setting": "healthy Beagle dogs [2]; [6]", "result": 3},
      {"measurement": "Skin lesion, number of animals affected", "setting": "healthy Beagle dogs [2]; [6]", "result": 6},
      {"measurement": "Skin scab paw, number of animals affected", "setting": "healthy Beagle dogs [2]; [6]", "result": 1},
      {"measurement": "Skin thickening (paws), number of animals affected", "setting": "healthy Beagle dogs [2]; [6]", "result": 1},
      {"measurement": "Swollen paws, number of animals affected", "setting": "healthy Beagle dogs [2]; [6]", "result": 6},
      {"measurement": "Skin discoloration, number of animals affected", "setting": "healthy Beagle dogs [2]; [7]", "result": 0},
      {"measurement": "Skin lesion w/discharge, number of animals affected", "setting": "healthy Beagle dogs [2]; [7]", "result": 4},
      {"measurement": "Skin lesion, number of animals affected", "setting": "healthy Beagle dogs [2]; [7]", "result": 8},
      {"measurement": "Skin scab paw, number of animals affected", "setting": "healthy Beagle dogs [2]; [7]", "result": 1},
      {"measurement": "Skin thickening (paws), number of animals affected", "setting": "healthy Beagle dogs [2]; [7]", "result": 0},
      {"measurement": "Swollen paws, number of animals affected", "setting": "healthy Beagle dogs [2]; [7]", "result": 3},
      {"measurement": "ophthalmological or neurological findings associated with treatment", "setting": "healthy Beagle dogs [2]; all dose levels", "result": "No ophthalmological or neurological findings"},
      {"measurement": "serious adverse effects or mortality", "setting": "healthy Beagle dogs [2]; including at 5X overdose for 6 months", "result": "no serious adverse effects or mortality"},
      {"measurement": "tolerability", "setting": "healthy Beagle dogs [2]; therapeutic dose (0.8 mg/kg)", "result": "well-tolerated"},
      {"measurement": "interdigital cysts (IDC)", "setting": "dogs", "result": "not observed"},
      {"measurement": "increase in oral bioavailability when given with food or after feeding", "setting": "[3]", "result": "~20", "unit": "%"}
    ]}
  ]
}
